Literature values as cited in patent US10813882B1, “In situ gelling formulation for reduced initial drug burst” (King Abdulaziz University, priority 2019, dated 2020).

Columns and labels:
[1] = tested on: plasma protein
[2] = in vivo

Compound: CC(C)c1nc(N(C)S(C)(=O)=O)nc(-c2ccc(F)cc2)c1/C=C/[C@@H](O)C[C@@H](O)CC(=O)O [RSV, Rosuvastatin]
- solubility in organic solvent such as DMSO and DMF (DMSO, dimethyl formamide): soluble
- solubility in ethanol (ethanol): marginally soluble
- bound to plasma protein [1]: 88%
- bioavailability [2]: 20%
- effect of food on the amount absorbed [2]: does not affect
- time to maximum plasma level [2]: 3 to 5 h
